Results: ChEMBL document CHEMBL3352436, “DDD-028: a potent potential non-opioid, non-cannabinoid analgesic for neuropathic and inflammatory pain” (Bioorg Med Chem Lett, 2014)
Calls of active or inactive are those of the source.

Columns and labels:
Rattus norvegicus [1] = experiment: Antinociceptive activity in spinal nerve ligation CD rat model of neuropathic pain assessed as inhibition of mechanical allodynia measured as paw withdrawal threshold at 39 mg/kg, po up to 15 mins; assay type: functional, organism-based; parameters: dose 39 mg/kg
Rattus norvegicus [2] = experiment: Antinociceptive activity in spinal nerve ligation CD rat model of neuropathic pain assessed as inhibition of mechanical allodynia measured as time required for maximal effect at 39 mg/kg, po; assay type: functional
Rattus norvegicus [3] = experiment: Antinociceptive activity in Complete Freund's adjuvant-induced inflammatory pain CD rat model assessed as mechanical hypersensitivity measured as weight bearing capacity at 30 mg/kg, po measured up to 15 mins relative to control; assay type: functional, organism-based; parameters: dose 30 mg/kg
Rattus norvegicus [4] = experiment: Antinociceptive activity in Complete Freund's adjuvant-induced inflammatory pain CD rat model assessed as time required for maximal effect at 30 mg/kg, po relative to control; assay type: functional
Rattus norvegicus [5] = experiment: Antinociceptive activity in Complete Freund's adjuvant-induced inflammatory pain CD rat model assessed as mechanical hypersensitivity measured as weight bearing capacity at 30 mg/kg, po measured after 15 to 120 mins relative to control; assay type: functional, organism-based; parameters: dose 30 mg/kg
Rattus norvegicus [6] = experiment: Toxicity in Complete Freund's adjuvant-induced inflammatory pain CD rat model assessed as sedation at 30 mg/kg, po measured at 2 hrs post dose; assay type: organism-based; parameters: dose 30 mg/kg, route oral; settings: in vivo
[7] = Cmax in CD rat at 27 mg/kg, iv; assay type: ADME, organism-based; parameters: dose 27 mg/kg, route intravenous; settings: in vivo
[8] = AUC (0 to t) in CD rat at 27 mg/kg, iv; assay type: ADME, organism-based; parameters: dose 27 mg/kg, route intravenous; settings: plasma
[9] = AUC (0 to infinity) in CD rat at 27 mg/kg, iv; assay type: ADME, organism-based; parameters: time infinity, dose 27 mg/kg, route intravenous; settings: plasma
[10] = Tmax in CD rat at 27 mg/kg, iv; assay type: ADME, organism-based; parameters: dose 27 mg/kg, route intravenous; settings: in vivo
[11] = Half life in CD rat at 27 mg/kg, iv; assay type: ADME, organism-based; parameters: dose 27 mg/kg, route intravenous; settings: in vivo
[12] = Elimination rate constant in CD rat at 27 mg/kg, iv; assay type: ADME, organism-based; parameters: dose 27 mg/kg, route intravenous; settings: in vivo
[13] = Binding affinity to […] AMPA receptor (unknown origin); parameters: species or system Homo sapiens
Cannabinoid receptor 1 = Cannabinoid receptor 1 (Homo sapiens, UniProt P21554); experiment: Binding affinity to cannabinoid CB1 receptor (unknown origin)
Cannabinoid receptor 2 = Cannabinoid receptor 2 (Homo sapiens, UniProt P34972); experiment: Binding affinity to cannabinoid CB2 receptor (unknown origin)
[14] = Binding affinity to strychnine-sensitive glycine receptor (unknown origin); parameters: species or system Homo sapiens
[15] = Binding affinity to strychnine-insensitive glycine receptor (unknown origin); parameters: species or system Homo sapiens
[16] = Binding affinity to sigma2 receptor (unknown origin); parameters: species or system Homo sapiens
[17] = target: Somatostatin receptor type 2 (Homo sapiens, UniProt P30874); experiment: Binding affinity to SST2 receptor (unknown origin)
[18] = target: Somatostatin receptor type 4 (Homo sapiens, UniProt P31391); experiment: Binding affinity to SST4 receptor (unknown origin)
[19] = target: Transient receptor potential cation channel subfamily V member 1 (Homo sapiens, UniProt Q8NER1); experiment: Binding affinity to TRPV1 (unknown origin)
Rattus norvegicus [20] = experiment: Antinociceptive activity in spinal nerve ligation CD rat model of neuropathic pain assessed as inhibition of mechanical allodynia measured as time required for maximal effect at 5 mg/kg, po; assay type: functional
Rattus norvegicus [21] = experiment: Antinociceptive activity in spinal nerve ligation CD rat model of neuropathic pain assessed as inhibition of mechanical allodynia at 39 mg/kg, po after 15 to 180 mins; assay type: functional
Rattus norvegicus [22] = experiment: Antinociceptive activity in spinal nerve ligation CD rat model of neuropathic pain assessed as inhibition of mechanical allodynia measured as paw withdrawal threshold at 5 mg/kg, po after 15 to 180 mins relative to pregabalin; assay type: functional
Mus musculus [23] = experiment: Antinociceptive activity in sciatic nerve chronic constriction injury CD1 mouse model assessed as paw withdrawal threshold at 3.5 umol/kg, po measured at 30 mins (reference value: 0.26 to 0.37 g); assay type: functional
Mus musculus [24] = experiment: Antinociceptive activity in sciatic nerve chronic constriction injury CD1 mouse model assessed as paw withdrawal threshold at 3.5 umol/kg, po measured at 60 mins (reference value: 0.26 to 0.37 g); assay type: functional
Mus musculus [25] = experiment: Antinociceptive activity in sciatic nerve chronic constriction injury CD1 mouse model assessed as paw withdrawal threshold at 3.5 umol/kg, po measured at 120 mins (reference value: 0.26 to 0.37 g); assay type: functional
Mus musculus [26] = experiment: Antinociceptive activity in sciatic nerve chronic constriction injury CD1 mouse model assessed as paw withdrawal threshold at 3.5 umol/kg, po measured at 180 mins (reference value: 0.26 to 0.37 g); assay type: functional
Mus musculus [27] = experiment: Antinociceptive activity in sciatic nerve chronic constriction injury CD1 mouse model assessed as paw withdrawal threshold at 3.5 umol/kg, po measured at 300 mins (reference value: 0.26 to 0.37 g); assay type: functional
Mus musculus [28] = experiment: Antinociceptive activity in sciatic nerve chronic constriction injury CD1 mouse model assessed as paw withdrawal threshold at 1.3 umol/kg administered intrathecally measured at 30 mins (reference value: 0.21 to 0.30 g); assay type: functional
Mus musculus [29] = experiment: Antinociceptive activity in sciatic nerve chronic constriction injury CD1 mouse model assessed as paw withdrawal threshold at 1.3 umol/kg administered intrathecally measured at 60 mins (reference value: 0.21 to 0.30 g); assay type: functional
Mus musculus [30] = experiment: Antinociceptive activity in sciatic nerve chronic constriction injury CD1 mouse model assessed as paw withdrawal threshold at 1.3 umol/kg administered intrathecally measured at 120 mins (reference value: 0.21 to 0.30 g); assay type: functional
Mus musculus [31] = experiment: Antinociceptive activity in sciatic nerve chronic constriction injury CD1 mouse model assessed as paw withdrawal threshold at 1.3 umol/kg administered intrathecally measured at 180 mins (reference value: 0.21 to 0.30 g); assay type: functional
Mus musculus [32] = experiment: Antinociceptive activity in sciatic nerve chronic constriction injury CD1 mouse model assessed as paw withdrawal threshold at 1.3 umol/kg administered intrathecally measured at 300 mins (reference value: 0.21 to 0.30 g); assay type: functional
Rattus norvegicus [33] = experiment: Antinociceptive activity in Complete Freund's adjuvant-induced inflammatory pain CD rat model assessed as mechanical hypersensitivity measured as weight bearing capacity at 5 mg/kg, po administered before challenge relative to control; assay type: functional
Rattus norvegicus [34] = experiment: Antinociceptive activity in Complete Freund's adjuvant-induced inflammatory pain CD rat model assessed as mechanical hypersensitivity measured as weight bearing capacity at 5 mg/kg, po administered 24 hrs post challenge relative to control; assay type: functional
Rattus norvegicus [35] = experiment: Antinociceptive activity in Complete Freund's adjuvant-induced inflammatory pain CD rat model assessed as mechanical hypersensitivity measured as weight bearing capacity at 5 mg/kg, po measured up to 15 mins relative to control; assay type: functional, organism-based; parameters: dose 5 mg/kg
Rattus norvegicus [36] = experiment: Antinociceptive activity in Complete Freund's adjuvant-induced inflammatory pain CD rat model assessed as time required for maximal effect at 5 mg/kg, po relative to control; assay type: functional
Rattus norvegicus [37] = experiment: Antinociceptive activity in Complete Freund's adjuvant-induced inflammatory pain CD rat model assessed as mechanical hypersensitivity measured as weight bearing capacity at 5 mg/kg, po measured after 15 to 120 mins relative to control; assay type: functional
Rattus norvegicus [38] = experiment: Antinociceptive activity in Complete Freund's adjuvant-induced inflammatory pain CD rat model assessed as mechanical hypersensitivity measured as weight bearing capacity at 5 mg/kg, po measured after 15 to 120 mins relative to indomethacin; assay type: functional
Rattus norvegicus [39] = experiment: Toxicity in Complete Freund's adjuvant-induced inflammatory pain CD rat model assessed as sedation at 5 mg/kg, po measured at 2 hrs post dose; assay type: organism-based; parameters: dose 5 mg/kg, route oral; settings: in vivo
[40] = Cmax in CD1 mouse at 5 mg/kg, po; assay type: ADME, organism-based; parameters: dose 5 mg/kg, route oral; settings: in vivo
[41] = AUC (0 to t) in CD1 mouse at 5 mg/kg, po; assay type: ADME, organism-based; parameters: dose 5 mg/kg, route oral; settings: plasma
[42] = AUC (0 to infinity) in CD1 mouse at 5 mg/kg, po; assay type: ADME, organism-based; parameters: time infinity, dose 5 mg/kg, route oral; settings: plasma
[43] = Tmax in CD1 mouse at 5 mg/kg, po; assay type: ADME, organism-based; parameters: dose 5 mg/kg, route oral; settings: in vivo
[44] = Half life in CD1 mouse at 5 mg/kg, po; assay type: ADME, organism-based; parameters: dose 5 mg/kg, route oral; settings: in vivo
[45] = Elimination rate constant in CD1 mouse at 5 mg/kg, po; assay type: ADME, organism-based; parameters: dose 5 mg/kg, route oral; settings: in vivo
Adenosine receptor A1 = target: T1, Adenosine receptor A1 (Homo sapiens, UniProt P30542); experiment: Binding affinity to adenosine A1 receptor (unknown origin)
T1 sequence (P30542 whole entry): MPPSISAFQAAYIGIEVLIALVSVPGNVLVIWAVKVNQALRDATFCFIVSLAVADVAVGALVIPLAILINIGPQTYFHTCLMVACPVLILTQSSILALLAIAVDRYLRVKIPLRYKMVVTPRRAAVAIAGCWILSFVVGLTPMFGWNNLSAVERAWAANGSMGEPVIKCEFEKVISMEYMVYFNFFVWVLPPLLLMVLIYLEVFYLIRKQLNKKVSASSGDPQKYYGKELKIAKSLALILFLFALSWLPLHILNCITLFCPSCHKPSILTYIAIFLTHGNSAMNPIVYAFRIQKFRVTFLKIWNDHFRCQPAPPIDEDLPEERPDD

Adenosine receptor A2a = Adenosine receptor A2a (Homo sapiens, UniProt P29274); experiment: Binding affinity to adenosine A2A receptor (unknown origin)
Adenosine receptor A3 = target: T2, Adenosine receptor A3 (Homo sapiens, UniProt P0DMS8); experiment: Binding affinity to adenosine A3 receptor (unknown origin)
T2 sequence (P0DMS8 whole entry): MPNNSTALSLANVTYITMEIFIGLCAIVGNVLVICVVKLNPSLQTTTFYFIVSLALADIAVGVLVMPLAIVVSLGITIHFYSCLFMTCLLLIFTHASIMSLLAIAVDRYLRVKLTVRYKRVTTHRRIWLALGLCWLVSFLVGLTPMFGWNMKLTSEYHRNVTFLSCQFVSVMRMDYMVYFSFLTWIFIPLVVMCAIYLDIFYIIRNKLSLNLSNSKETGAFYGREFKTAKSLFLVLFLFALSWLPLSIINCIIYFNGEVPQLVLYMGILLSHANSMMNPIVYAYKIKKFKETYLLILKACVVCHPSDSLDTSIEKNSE

Adenosine receptor A2a, sequence (P29274 whole entry): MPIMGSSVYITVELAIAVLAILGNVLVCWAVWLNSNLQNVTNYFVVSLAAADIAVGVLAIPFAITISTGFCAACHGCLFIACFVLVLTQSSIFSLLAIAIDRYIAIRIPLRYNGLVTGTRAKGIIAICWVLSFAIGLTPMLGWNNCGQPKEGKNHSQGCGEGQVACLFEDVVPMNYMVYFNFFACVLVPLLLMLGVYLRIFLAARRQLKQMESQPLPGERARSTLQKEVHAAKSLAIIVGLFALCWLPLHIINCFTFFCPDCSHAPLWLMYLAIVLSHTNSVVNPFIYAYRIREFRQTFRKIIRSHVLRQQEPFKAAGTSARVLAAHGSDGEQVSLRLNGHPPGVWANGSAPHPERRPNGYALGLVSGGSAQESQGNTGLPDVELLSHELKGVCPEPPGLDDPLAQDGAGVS
Somatostatin receptor type 2, sequence (P30874 whole entry): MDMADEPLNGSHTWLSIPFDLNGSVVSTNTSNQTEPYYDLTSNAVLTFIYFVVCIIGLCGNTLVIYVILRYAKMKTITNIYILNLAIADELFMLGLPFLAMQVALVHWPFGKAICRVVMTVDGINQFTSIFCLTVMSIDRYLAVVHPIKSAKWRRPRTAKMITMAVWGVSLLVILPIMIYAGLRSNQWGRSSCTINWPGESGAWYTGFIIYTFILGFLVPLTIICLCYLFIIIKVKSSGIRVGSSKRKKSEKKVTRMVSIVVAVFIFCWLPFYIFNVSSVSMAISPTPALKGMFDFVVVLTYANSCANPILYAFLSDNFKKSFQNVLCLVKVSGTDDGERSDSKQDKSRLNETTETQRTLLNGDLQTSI
Transient receptor potential cation channel subfamily V member 1, sequence (Q8NER1 whole entry): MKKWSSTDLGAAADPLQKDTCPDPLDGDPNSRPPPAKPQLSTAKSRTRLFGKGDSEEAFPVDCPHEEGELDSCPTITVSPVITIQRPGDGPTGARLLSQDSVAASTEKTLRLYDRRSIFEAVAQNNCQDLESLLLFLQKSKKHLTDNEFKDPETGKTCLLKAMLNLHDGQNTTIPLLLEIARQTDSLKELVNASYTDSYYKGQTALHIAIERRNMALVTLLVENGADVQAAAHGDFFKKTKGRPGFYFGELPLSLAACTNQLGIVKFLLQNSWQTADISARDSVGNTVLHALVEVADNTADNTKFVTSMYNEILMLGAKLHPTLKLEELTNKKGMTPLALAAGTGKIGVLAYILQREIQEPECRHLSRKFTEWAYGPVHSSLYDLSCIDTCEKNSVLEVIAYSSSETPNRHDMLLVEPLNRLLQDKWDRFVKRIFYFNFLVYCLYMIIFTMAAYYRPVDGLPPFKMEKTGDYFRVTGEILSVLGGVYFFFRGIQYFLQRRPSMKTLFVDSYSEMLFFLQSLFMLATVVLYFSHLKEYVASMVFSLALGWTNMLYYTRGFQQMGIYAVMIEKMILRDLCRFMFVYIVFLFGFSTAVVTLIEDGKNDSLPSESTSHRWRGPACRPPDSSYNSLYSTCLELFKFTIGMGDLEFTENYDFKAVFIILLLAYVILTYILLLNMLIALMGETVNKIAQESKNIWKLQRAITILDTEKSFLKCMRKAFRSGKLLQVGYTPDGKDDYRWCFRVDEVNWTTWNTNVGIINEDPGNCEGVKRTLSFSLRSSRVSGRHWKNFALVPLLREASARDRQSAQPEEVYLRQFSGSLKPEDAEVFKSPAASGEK
Somatostatin receptor type 4, sequence (P31391 whole entry): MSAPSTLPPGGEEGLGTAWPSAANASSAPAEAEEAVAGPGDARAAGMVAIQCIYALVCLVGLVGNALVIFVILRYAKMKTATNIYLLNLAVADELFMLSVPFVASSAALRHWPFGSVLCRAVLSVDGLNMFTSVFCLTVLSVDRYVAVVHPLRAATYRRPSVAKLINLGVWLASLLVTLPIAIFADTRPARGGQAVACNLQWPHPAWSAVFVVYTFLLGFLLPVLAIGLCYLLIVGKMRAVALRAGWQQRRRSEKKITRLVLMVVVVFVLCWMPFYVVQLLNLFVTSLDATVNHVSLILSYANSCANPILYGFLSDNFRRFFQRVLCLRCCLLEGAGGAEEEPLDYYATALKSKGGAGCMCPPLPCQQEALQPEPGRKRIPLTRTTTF
Cannabinoid receptor 1, sequence (P21554 whole entry): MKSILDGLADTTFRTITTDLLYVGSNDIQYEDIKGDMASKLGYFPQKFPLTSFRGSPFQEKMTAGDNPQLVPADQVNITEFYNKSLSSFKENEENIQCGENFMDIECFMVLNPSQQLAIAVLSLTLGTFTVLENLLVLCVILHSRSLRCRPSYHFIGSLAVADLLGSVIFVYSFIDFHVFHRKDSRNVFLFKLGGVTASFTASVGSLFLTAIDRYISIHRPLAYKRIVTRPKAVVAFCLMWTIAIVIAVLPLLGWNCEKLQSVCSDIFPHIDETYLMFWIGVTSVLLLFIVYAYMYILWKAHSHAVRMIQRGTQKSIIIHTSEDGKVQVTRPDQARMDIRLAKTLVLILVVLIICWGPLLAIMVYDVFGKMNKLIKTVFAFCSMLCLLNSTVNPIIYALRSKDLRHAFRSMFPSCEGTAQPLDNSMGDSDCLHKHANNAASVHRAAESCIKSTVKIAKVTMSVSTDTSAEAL
Cannabinoid receptor 2, sequence (P34972 whole entry): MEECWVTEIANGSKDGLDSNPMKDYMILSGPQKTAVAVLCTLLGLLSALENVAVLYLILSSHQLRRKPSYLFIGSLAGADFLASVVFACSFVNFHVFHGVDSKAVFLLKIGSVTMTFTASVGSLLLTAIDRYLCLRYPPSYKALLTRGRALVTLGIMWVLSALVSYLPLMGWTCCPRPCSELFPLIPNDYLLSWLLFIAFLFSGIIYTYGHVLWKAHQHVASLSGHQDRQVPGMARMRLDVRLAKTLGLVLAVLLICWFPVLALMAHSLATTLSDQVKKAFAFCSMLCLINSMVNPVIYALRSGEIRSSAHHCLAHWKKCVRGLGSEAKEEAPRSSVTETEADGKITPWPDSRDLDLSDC

In the case of `CC(C)C[C@H](CN)CC(=O)O` [PREGABALIN], the inhibition (Rattus norvegicus [1]) is reported as “Active” and the Time (Rattus norvegicus [2]) is reported as 120 min.
With `COc1ccc2c(c1)c(CC(=O)O)c(C)n2C(=O)c1ccc(Cl)cc1` [INDOMETHACIN] the Activity (Rattus norvegicus [3]) was “Active”, the Time (Rattus norvegicus [4]) was 60 min and the Activity (Rattus norvegicus [5]) was “Active”. The Activity (Rattus norvegicus [6]) was “Toxic”, the Cmax [7] was 10400 ng/mL and the AUC(0-t) [8] was 93800 ng·h/mL. For the same molecule, the AUC(0-inf) [9] was 97100 ng·h/mL, the Tmax [10] was 0.75 h and the half-life [11] was 5.99 h. For the same molecule, the k el [12] was 3.33e-05 s⁻¹.
In the case of `CN1CCc2c(c3cccc4c3n2CCc2ccccc2-4)C1`, the Ki [13] is reported as > 10 µM, the Ki (Cannabinoid receptor 1) is reported as > 10 µM and the Ki (Cannabinoid receptor 2) is reported as > 10 µM. For the same molecule, the Ki [14] was > 10 µM, the Ki [15] was > 10 µM and the Ki [16] was 0.312 µM. For the same molecule, the Ki [17] was > 10 µM, the Ki [18] was > 10 µM and the Ki [19] was “Not Active”. The Time (Rattus norvegicus [20]) was 30 min, the inhibition in vivo at 39 mg/kg (Rattus norvegicus [21]) was 50% and the “fold change (FC)” value (Rattus norvegicus [22]) was 7. For the same molecule, the Activity (Mus musculus [23]) was 0.75 g, the Activity (Mus musculus [24]) was 1.09 g and the Activity (Mus musculus [25]) was 0.57 g. For the same molecule, the Activity (Mus musculus [26]) was 0.4 g, the Activity (Mus musculus [27]) was 0.21 g and the Activity (Mus musculus [28]) was 0.86 g. For the same molecule, the Activity (Mus musculus [29]) was 0.88 g, the Activity (Mus musculus [30]) was 0.67 g and the Activity (Mus musculus [31]) was 0.41 g. The Activity (Mus musculus [32]) was 0.21 g, the Activity (Rattus norvegicus [33]) was 50.8% and the Activity (Rattus norvegicus [34]) was 35.2%. For the same molecule, the Activity (Rattus norvegicus [35]) was “Active”, the Time (Rattus norvegicus [36]) was 60 min and the Activity (Rattus norvegicus [37]) was 90%. The “fold change (FC)” value (Rattus norvegicus [38]) was 5, the Activity (Rattus norvegicus [39]) was “Non-toxic” and the Cmax [40] was 126 ng/mL. It also gave an AUC(0-t) [41] of 211 ng·h/mL, an AUC(0-inf) [42] of 216 ng·h/mL and a Tmax [43] of 0.25 h. The half-life [44] was 1.86 h, the k el [45] was 0.000103 s⁻¹ and the Ki (Adenosine receptor A1) was > 10 µM. The Ki (Adenosine receptor A2a) was > 10 µM and the Ki (Adenosine receptor A3) was > 10 µM.
